From US20110124608A1, “USE OF 25-HYDROXY VITAMIN D3 TO INCREASE MUSCLE MASS IN MAMMALS” (priority 2007, published 2011)

Experiments:
Assay type in all cases: in vivo, pig
pigs [1] = experiment: Swine growth performance, Study A: pigs fed 25-OH D3 and farrowed to sows fed 25-OH D3
Text: (§1) Study A. Two treatment groups were used in all studies. The control group contained first-to-fifth parity pigs (sows and progenies) fed rations without 25-OH D3 supplementation. The experimental group was made up of first-to-fifth parity pigs fed rations supplemented with 50 mcg 25-OH D3/kg diet) and farrowed to sows fed rations supplemented with 25-OH D3 since 6 months old. Study A only covered the pre-starter to finisher stage (41-150 days old) for the first to third parities pigs, while it covered the booster to finisher stage (7-150 days old) for the fourth and fifth parity pigs. Study B. Two treatment groups were also used in this study. Pigs were randomly selected from mixed-parity sows fed rations containing no supplemental 25-OH on the same farm. The control group was fed rations without 25-OH D3, whereas the experimental group was fed rations supplemented with 25-OH D3 (50 mcg 25-OH D3/kg diet). Study B covered the pre-starter to finisher stage (41-150 days old). Number of pigs and replicates: There were 8-11 replicates per treatment and 4 pigs per replicate. Randomization and Allotment of pigs: Pigs were grouped according to size and sex and randomly allocated to each treatment. The number of male-replicates for the two treatments were equalized. Rations: The rations involved in all studies were gestating and lactation rations for the sows. Booster, pre-starter, starter, grower and finisher rations were given to the progenies. Feeding: The experimental pigs were fed ad libitum with dry feeds. Booster pigs (sucklings) were fed starting when they were 7 days old. Feeds were placed in a linear trough designed for piglets. For a few days, only a small amount of feed was given to the pigs, but when they were eating, the required amount was always in the feeder. The amounts of feeds were properly weighed and recorded. Pre-starter pigs were fed for 30 days using linear feeders while they were confined in slatted and elevated nursery pens. The grower-finisher pigs were fed using concrete linear feeders for 80 days while they were confined in pens with cement flooring. The following rations were fed to pigs corresponding to their age.
(§2) Other management Practices: All experimental animals were subject to the standard operating procedure in the farm where these studies were conducted. Data Collection The following data were collected: 1. Weights of piglets at 7 days old 2. Weight of piglets at 28 days old 3. Weight of pigs at 41, 70, 100, 130, and 150 days old 4. Feed consumption during the following periods:
Across parities, pigs weaned from 25-OH D3—fed sows were fed 50 μg 25-OH D3/kg diet and those weaned from control sows were fed the control diet (containing no 25-OH D3). Consistently across the three parities, pigs fed 25-OH D3 gained weight faster (a delta average of 3.9 kg) an converted feed to gain (a delta average of 7 points) more efficient than those fed the control diet.

pigs [2] = experiment: Swine growth performance, Study B / Example 2: pigs fed 25-OH D3, farrowed to sows fed without 25-OH D3
Text: as §1, §2
In this study, the pigs that were used were weaned from sows that were not fed 25-OH D3.

pigs [3] = experiment: Farm records: pigs weaned from 25-OH D3-fed sows but not fed 25-OH D3; details: pigs weaned from 25-OH D3-fed sows but not fed 25-OH D3 (prenatal exposure only)
[4] = across parities, prestarting-to-finishing pigs from 25-OH D3-fed sows, 50 μg 25-OH D3/kg diet
[5] = fifth parity pigs, 41-150-day old, sows fed 25-OH D3, 50 mcg 25-OH D3/kg diet
[6] = fifth parity pigs, 41-150-day old, sows fed 25-OH D3, difference to control
[7] = first parity pigs, 41-to-150-day-old, sows fed 25-OH D3, 50 mcg 25-OH D3/kg diet
[8] = first parity pigs, 41-to-150-day-old, sows fed 25-OH D3, difference to control
[9] = fourth parity pigs, 41-150-old, sows fed 25-OH D3, 50 mcg 25-OH D3/kg diet
[10] = fourth parity pigs, 41-150-old, sows fed 25-OH D3, difference to control
[11] = second parity pigs, 41-to-150-day-old, sows fed 25-OH D3, 50 mcg 25-OH D3/kg diet
[12] = second parity pigs, 41-to-150-day-old, sows fed 25-OH D3, difference to control
[13] = third parity pigs, 41-150-day-old, sows fed 25-OH D3, 50 mcg 25-OH D3/kg diet
[14] = third parity pigs, 41-150-day-old, sows fed 25-OH D3, difference to control
[15] = mixed-parity pigs, 41-to-150-day old, sows fed without 25-OH D3, 50 mcg 25-OH D3/kg diet
[16] = mixed-parity pigs, 41-to-150-day old, sows fed without 25-OH D3, difference to control

C=C1CC[C@H](O)C/C1=C/C=C1\CCC[C@]2(C)[C@@H]([C@H](C)CCCC(C)(C)O)CC[C@@H]12 [25-OH D3, 25-hydroxy vitamin D3]
feed to gain conversion, delta average v. control diet (pigs [1]; [4]): 7 points | weight gain, delta average v. control diet (pigs [1]; [4]): 3.9 kg | Daily wt gain (pigs [1]; [5]): 0.76 kg | Feed: Gain (pigs [1]; [5]): 2.22 | Final body wt (pigs [1]; [5]): 91.94 kg | Initial Body wt (pigs [1]; [5]): 8.66 kg | Total feed intake (pigs [1]; [5]): 184.63 kg | Total wt gain (pigs [1]; [5]): 83.27 kg | Daily wt gain, 25-OH D3 v. control (δ) (pigs [1]; [6]): 0.03 kg | Feed: Gain, 25-OH D3 v. control (δ) (pigs [1]; [6]): 0.00 | Final body wt, 25-OH D3 v. control (δ) (pigs [1]; [6]): 2.51 kg | Initial Body wt, 25-OH D3 v. control (δ) (pigs [1]; [6]): -0.07 kg | Total feed intake, 25-OH D3 v. control (δ) (pigs [1]; [6]): 5.04 kg | Total wt gain, 25-OH D3 v. control (δ) (pigs [1]; [6]): 2.57 kg | Daily wt gain (pigs [1]; [7]): 0.72 kg | Feed: Gain (pigs [1]; [7]): 2.32 | Final body wt (pigs [1]; [7]): 87.78 kg | Initial Body wt (pigs [1]; [7]): 8.24 kg | Total feed intake (pigs [1]; [7]): 184.60 kg | Total wt gain (pigs [1]; [7]): 79.55 kg | Daily wt gain, 25-OH D3 v. control (δ) (pigs [1]; [8]): 0.04 kg | Feed: Gain, 25-OH D3 v. control (δ) (pigs [1]; [8]): −0.15 | Final body wt, 25-OH D3 v. control (δ) (pigs [1]; [8]): 5.72 kg | Initial Body wt, 25-OH D3 v. control (δ) (pigs [1]; [8]): 0.64 kg | Total feed intake, 25-OH D3 v. control (δ) (pigs [1]; [8]): 0.86 kg | Total wt gain, 25-OH D3 v. control (δ) (pigs [1]; [8]): 5.08 kg | Daily wt gain (pigs [1]; [9]): 0.74 kg | Feed: Gain (pigs [1]; [9]): 2.07 | Final body wt (pigs [1]; [9]): 89.57 kg | Initial Body wt (pigs [1]; [9]): 8.43 kg | Total feed intake (pigs [1]; [9]): 166.93 kg | Total weight gain (pigs [1]; [9]): 81.15 kg | Daily wt gain, 25-OH D3 v. control (δ) (pigs [1]; [10]): 0.01 kg | Feed: Gain, 25-OH D3 v. control (δ) (pigs [1]; [10]): −0.05 | Final body wt, 25-OH D3 v. control (δ) (pigs [1]; [10]): 1.21 kg | Initial Body wt, 25-OH D3 v. control (δ) (pigs [1]; [10]): 0.15 kg | Total feed intake, 25-OH D3 v. control (δ) (pigs [1]; [10]): -1.86 kg | Total weight gain, 25-OH D3 v. control (δ) (pigs [1]; [10]): 1.06 kg | Daily wt gain (pigs [1]; [11]): 0.78 kg | Feed: Gain (pigs [1]; [11]): 2.28 | Final body wt (pigs [1]; [11]): 95.78 kg | Initial Body wt (pigs [1]; [11]): 10.56 kg | Total feed intake (pigs [1]; [11]): 193.74 kg | Total wt gain (pigs [1]; [11]): 85.22 kg | Daily wt gain, 25-OH D3 v. control (δ) (pigs [1]; [12]): 0.06 kg | Feed: Gain, 25-OH D3 v. control (δ) (pigs [1]; [12]): −0.04 | Final body wt, 25-OH D3 v. control (δ) (pigs [1]; [12]): 7.34 kg | Initial Body wt, 25-OH D3 v. control (δ) (pigs [1]; [12]): 1.67 kg | Total feed intake, 25-OH D3 v. control (δ) (pigs [1]; [12]): 9.25 kg | Total wt gain, 25-OH D3 v. control (δ) (pigs [1]; [12]): 5.59 kg | Daily weight gain (pigs [1]; [13]): 0.76 kg | Feed: Gain (pigs [1]; [13]): 2.16 | Final body wt (pigs [1]; [13]): 92.39 kg | Initial Body wt (pigs [1]; [13]): 8.88 kg | Total feed intake (pigs [1]; [13]): 179.35 kg | Total wt gain (pigs [1]; [13]): 83.51 kg | Daily weight gain, 25-OH D3 v. control (δ) (pigs [1]; [14]): 0.05 kg | Feed: Gain, 25-OH D3 v. control (δ) (pigs [1]; [14]): −0.13 | Final body wt, 25-OH D3 v. control (δ) (pigs [1]; [14]): 5.88 kg | Initial Body wt, 25-OH D3 v. control (δ) (pigs [1]; [14]): 0.75 kg | Total feed intake, 25-OH D3 v. control (δ) (pigs [1]; [14]): 0.52 kg | Total wt gain, 25-OH D3 v. control (δ) (pigs [1]; [14]): 5.12 kg | Daily wt gain (pigs [2]; [15]): 0.74 kg | Feed: Gain (pigs [2]; [15]): 2.34 | Final body wt (pigs [2]; [15]): 89.59 kg | Initial Body wt (pigs [2]; [15]): 8.44 kg | Total feed intake (pigs [2]; [15]): 190.05 kg | Total wt gain (pigs [2]; [15]): 81.15 kg | Daily wt gain, 25-OH D3 v. control (δ) (pigs [2]; [16]): 0.01 kg | Feed: Gain, 25-OH D3 v. control (δ) (pigs [2]; [16]): −0.06 | Final body wt, 25-OH D3 v. control (δ) (pigs [2]; [16]): 0.98 kg | Initial Body wt, 25-OH D3 v. control (δ) (pigs [2]; [16]): 0.11 kg | Total feed intake, 25-OH D3 v. control (δ) (pigs [2]; [16]): -0.89 kg | Total wt gain, 25-OH D3 v. control (δ) (pigs [2]; [16]): 0.88 kg | conversion of feed to weight gain compared with pigs fed without 25-OH D3 (pigs [2]; pigs weaned from sows not fed 25-OH D3): more efficiently | weight gain compared with pigs fed 25-OH D3 (Table 1) (pigs [3]): gain weight slower | body weight average (pigs [3]; farm records, n=23 pigs): 80.90 kg
